Where “and” joins values, the source holds several entries; their conditions need not be identical. Equal entries are not always repeated. Entries after “also recorded” stand apart in the source; their conditions may differ.
What was measured:
Type in all cases: cell-based, human
[1] = tested on: HEK-Blue hTLR4 cells; test: IL-8 dose response in HEK-Blue hTLR4 cells with P.g. LPS 1 μg/ml and 3X-24X dilutions of simple solutions (Example 4)
Procedure: (§1) HEK-Blue hTLR4 cells (Invivogen, cat #hkb-htlr4) were cultured in a DMEM culture medium supplemented with 10% FBS and 1% penstrep at 37° C. with 5% CO2. LPS from Porphyromonas gingivalis (P.g. LPS; Invivogen, cat #tlrl-pglps and cat #tlrl-ppglps) activates TLR4 receptor and downstream inflammation in HEK-Blue hTLR4 cells. P.g. LPS is co-incubated with HEK-Blue hTLR4 cells in the absence or presence of the simple solutions. Standard and ultrapure P.g. LPS were both used due to ultrapure being a specific ligand for the TLR4 receptor while standard LPS is a ligand for both TLR2 and TLR4.
(§2) The simple solutions a) Zinc Oxide (ZnO), b) Zinc Citrate (ZnCitrate), c) Zinc Oxide+Zinc Citrate (Dual Zinc; DZ), d) Dual Zinc+Arginine (DZA, zinc oxide, zinc citrate and arginine), and e) L-Arginine (Arg) were diluted at different concentrations with culture medium.
2) experiments using 3×, 6×, 12×, and 24× dilution fold of the simple solutions (see Table 6 below).
(§3) HEK-Blue hTLR4 cells were plated in 96-well plates and grown until confluent at 37° C. and 5% CO2 in HEK-blue selection media (DMEM with 10% FBS, 1% penicillin-streptomycin, and antibiotics for HEK-blue selection (Invivogen, cat #hb-sel)). Cells were co-incubated overnight with varying concentrations of different zinc actives as well as arginine and stimulated with either 0.1 μg/mL standard P. gingivalis LPS or 1 μg/mL ultrapure P. gingivalis LPS. Cell supernatants were collected for human inflammation cytokine panels using Multiplex and ELISA analysis.
(§4) Multiplex analysis was performed using the MILLIPLEX MAP Human Cytokine/Chemokine Magnetic Bead Panel—Immunology Multiplex Assay for IL-1, IL-6, IL-8, TNFα, and GM-CSF (Millipore Sigma, cat #HCYTOMAG-60K).
In order to understand the role of Arginine in the inhibition of LPS induced inflammation, a dose response experiment was performed using ultrapure P.g. LPS, which only specifically targets TLR4 receptor, in order to maximize the activation of NF-kB and expression of IL-8.
The testing samples were prepared as the stock simple solutions. […] The first serial dilution was made 3 times with water, a dilution factor simulating dilution of toothpastes while brushing. Additional serial dilutions were made by 2-fold of the first dilution to study dose response effect.

[2] = tested on: HEK-TLR4 cells; test: P. gingivalis LPS-induced cytokine secretion by HEK-TLR4 cells, Luminex 5-plex magnetic bead panel (Example 2)
Procedure: Commercially available HEK-Blue TLR4 cells (Invitrogen) are recombinant HEK 293 cells that have been transformed with DNA that encodes TLR4 that is expressed and present on the cell surface. HEK-Blue TLR4 cells are grown ion culture and used can be used in experimental assays to identify test compositions that modulate inflammation pathways stimulated by TLR4-LPS interaction.
Initial for LPS and zinc-containing starting solutions were made as follows. An LPS starting solution was prepared as follows: a […] solution of LPS was prepared using 2 μl of 1 mg/ml LPS and 10 ml media. Multiple zinc starting solutions were each prepared using media as diluent: a) 20 mM zinc oxide, b) 2 mM zinc oxide, c) 20 mM zinc citrate, d) 2 mM zinc citrate, e) 20 mM of a composition containing a 2:1 mixture of zinc oxide and zinc citrate and f) 2 mM of a composition containing a 2:1 mixture of zinc oxide and zinc citrate. The starting solutions were used to prepare various test samples.
In some embodiments, control assays include “Untreated”, in which eight Zinc test samples without LPS were made: […], 10 mM zinc oxide+zinc citrate, 1 mM zinc oxide+zinc citrate, 10 mM zinc oxide+zinc citrate+arginine and 1 mM zinc oxide+zinc citrate+arginine, The test samples without LPS were prepared by diluting the zinc starting solutions with equal parts media. Eight test samples with LPS were made: […], […], […], […], 10 mM zinc oxide+zinc citrate LPS, 1 mM zinc oxide+zinc citrate LPS, 10 mM zinc oxide+zinc citrate+arginine LPS and 1 mM zinc oxide+zinc citrate+arginine LPS. The test samples with LPS were prepared by diluting the zinc starting solutions with equal parts LPS starting solution.
Cells were grown to 70-80% confluent in a 96 well plate. 100 uL of a test sample was added to a well. Cells with test sample were incubated overnight. Media was collected from each well and transferred to a corresponding well in a 96-well plate. Assays to measure proinflammatory cytokines including IL-8 secretion were performed for each well.
Inflammation markers in supernatants collected from HEK-Blue cells co-incubated with Zinc and Zinc+LPS were quantified using Luminex Magpix instrument (MAGPIX-XPON42) and human 5-plex cytokine/chemokine Magnetic bead panel (Millipore HCYTOMAG-60K). The human 5-plex cytokine/chemokine Magnetic bead panel quantifies TNF-α, IL-6, IL-8, IL-1β and GM-CSF.
The Luminex Kit Procedure outlined in the instruction manual for each separate Luminex kit was performed on the supernatants collected from the HEK-Blue cells co-incubated with Zinc test solutions without LPS and Zinc test solutions plus LPS. Quality controls in range for the specified analytes were performed to ensure levels were within the acceptable range.
To run the Luminex Test, all necessary calibration and verification procedures as outlined by the MagPix and xPonent softwares were completed and the appropriate protocol for the assay was selected. The standards were verified to be correct and complete the plate layout of samples was verified. […] The “Avg. Result” was identified in the results generated.
Experiments were conducted to identify compositions that inhibit P. gingivalis LPS-induced IL-8, TNFα, GM-CSF, IL-1β and IL-6 by HEK-TLR4 cells. HEK-TLR4 cells in 96 well plates were contacted with 100 μl samples. IL-8, TNFα, GM-CSF, IL-1β and IL-6 were detected as described above.

[3] = tested on: HEK-Blue hTLR4 cells; test: IL-8 in HEK-Blue hTLR4 cell supernatants with standard P.g. LPS and simple solutions at 1 mM vs 10 mM total zinc (Example 4); conditions: for IL-8 Concentration, replicate: listed as ZnCitrate
Procedure: as §1, §2
1) experiments using 1 mM vs 10 mM total zinc; and
as §3, §4
Testing was performed using total zinc concentrations to normalize the amount the zinc applied in the cell culture medium during co-incubation. Two concentrations of total zinc ion are based on the potential amount of zinc retained on the mouth soft tissue surface.

[4] = 3X dilution of stock simple solution (Table 6) with P.g. LPS (1 μg/ml)
[5] = 6X dilution of stock simple solution (Table 6) with P.g. LPS (1 μg/ml)
[6] = 12X dilution of stock simple solution (Table 6) with P.g. LPS (1 μg/ml)
[7] = 24X dilution of stock simple solution (Table 6) with P.g. LPS (1 μg/ml)
[8] = 300 ppm with 0.1μ/ml P. gingivalis LPS
[9] = 600 ppm with 0.1μ/ml P. gingivalis LPS
[10] = P. gingivalis LPS, 300 and 600 ppm, listed as zinc citrate
[11] = 1 mM total zinc with standard P.g. LPS (0.1 μg/ml)
[12] = 10 mM total zinc with standard P.g. LPS (0.1 μg/ml)

N=C(N)NCCC[C@H](N)C(=O)O [Arg, L-Arginine]
IL-8 Concentration, Average [1, 4]: 236.6 pg/mL
IL-8 Concentration, replicate [1, 4]: 248.5 pg/mL and 224.7 pg/mL
IL-8 Concentration, Average [1, 5]: 1480.7 pg/mL
IL-8 Concentration, replicate [1, 5]: 1649.9 pg/mL and 1311.5 pg/mL
IL-8 Concentration, Average [1, 6]: 2903.3 pg/mL
IL-8 Concentration, replicate [1, 6]: 2891.2 pg/mL and 2915.5 pg/mL
IL-8 Concentration, Average [1, 7]: 3020.6 pg/mL
IL-8 Concentration, replicate [1, 7]: 3003.8 pg/mL and 3037.4 pg/mL
inhibition of IL-8 (in words) ([1]; at 3 times dilution of the stock simple solution): strong inhibition
inhibition of IL-8 (in words) ([1]; when dilution folds increase): lose the inhibition of IL-8 gradually

O=C([O-])CC(O)(CC(=O)[O-])C(=O)[O-].O=C([O-])CC(O)(CC(=O)[O-])C(=O)[O-].[Zn+2].[Zn+2].[Zn+2] [ZnC, zinc citrate]
GM-CSF (raw data, single replicate) [2, 8]: <3.2 pg/ml (3×) and 0.633 pg/ml
IL-1β (raw data, single replicate) [2, 8]: 0.4044 pg/mL and 0.5186 pg/mL and 0.1227 pg/mL and 1.331 pg/mL
IL-6 (raw data, single replicate) [2, 8]: <3.2 pg/ml (3×) and 0.5932 pg/ml
IL-8 (average result) [2, 8]: 395.2 pg/mL
IL-8 (raw data, single replicate) [2, 8]: 364.5 pg/mL and 386.8 pg/mL and 285.4 pg/mL and 544.1 pg/mL
TNF-α (average result) [2, 8]: 3.857 pg/mL
TNFα (raw data, single replicate) [2, 8]: 3.113 pg/mL and 2.696 pg/mL and 2.325 pg/mL and 7.294 pg/mL
GM-CSF (raw data, single replicate) ([2]; 300 ppm, without LPS): <3.2 pg/mL
IL-1β (raw data, single replicate) ([2]; 300 ppm, without LPS): 0.01381 pg/mL and 0.1227 pg/mL and 0.2344 pg/mL and 0.4044 pg/mL
IL-6 (raw data, single replicate) ([2]; 300 ppm, without LPS): <3.2 pg/mL
IL-8 (average result) ([2]; 300 ppm, without LPS): 294 pg/mL
IL-8 (raw data, single replicate) ([2]; 300 ppm, without LPS): 254.6 pg/mL and 237.5 pg/mL and 296.9 pg/mL and 386.9 pg/mL
TNF-α (average result) ([2]; 300 ppm, without LPS): 1.616 pg/mL
TNFα (raw data, single replicate) ([2]; 300 ppm, without LPS): 1.244 pg/mL and 1.675 pg/mL and 1.373 pg/mL and 2.173 pg/mL
GM-CSF (raw data, single replicate) [2, 9]: <3.2 pg/mL
IL-1β (raw data, single replicate) [2, 9]: 0.6335 pg/ml and 0.1227 pg/ml (2×) and 0.2344 pg/ml
IL-6 (raw data, single replicate) [2, 9]: <3.2 pg/mL
IL-8 (average result) [2, 9]: 326.3 pg/mL
IL-8 (raw data, single replicate) [2, 9]: 447.3 pg/mL and 287.8 pg/mL and 291.5 pg/mL and 278.6 pg/mL
TNF-α (average result) [2, 9]: 1.596 pg/mL
TNFα (raw data, single replicate) [2, 9]: 2.587 pg/mL and 1.416 pg/mL and 1.266 pg/mL and 1.116 pg/mL
GM-CSF (raw data, single replicate) ([2]; 600 ppm, without LPS): 0.1483 pg/ml and 0.07253 pg/ml and <3.2 pg/ml (2×)
IL-1β (raw data, single replicate) ([2]; 600 ppm, without LPS): 0.9228 pg/mL and 0.2908 pg/mL and 0.01381 pg/mL and 0.1227 pg/mL
IL-6 (raw data, single replicate) ([2]; 600 ppm, without LPS): 0.3248 pg/ml and <3.2 pg/ml (3×)
IL-8 (average result) ([2]; 600 ppm, without LPS): 293.9 pg/mL
IL-8 (raw data, single replicate) ([2]; 600 ppm, without LPS): 434.5 pg/mL and 262.1 pg/mL and 234.6 pg/mL and 244.6 pg/mL
TNF-α (average result) ([2]; 600 ppm, without LPS): 1.172 pg/mL
TNFα (raw data, single replicate) ([2]; 600 ppm, without LPS): 2.064 pg/mL and 1.073 pg/mL and 0.6069 pg/mL and 0.9454 pg/mL
effect on LPS-induced TNFα (in words) ([2]; P. gingivalis LPS, 300 and 600 ppm, listed as Zinc citrate): more profound inhibition
effect on LPS-induced TNFα (in words) [2, 10]: significantly reduced
effect on induction of IL-8 by LPS (in words) [2, 10]: significantly reduced; also recorded: profound inhibition
IL-8 Concentration, Average [3, 11]: 34.9 pg/mL
IL-8 Concentration, replicate [3, 11]: 55.35 pg/mL and 27.95 pg/mL and 26.65 pg/mL and 29.55 pg/mL
IL-8 Concentration, Average [3, 12]: 10.6 pg/mL
IL-8 Concentration, replicate [3, 12]: 11.85 pg/ml (2×) and 3.15 pg/ml
IL-8 induced by co-incubation with P.g. LPS (in words) ([3]; at both 1 mM and 10 mM): reduced
IL-8 Concentration, Average [1, 4]: 32.1 pg/mL
IL-8 Concentration, replicate ([1]; 3X dilution of stock simple solution (Table 6) with P.g. LPS (1 μg/ml), listed as ZnCitrate): 35.4 pg/mL and 28.9 pg/mL
IL-8 Concentration, Average [1, 5]: 38.0 pg/mL
IL-8 Concentration, replicate ([1]; 6X dilution of stock simple solution (Table 6) with P.g. LPS (1 μg/ml), listed as ZnCitrate): 38.1 pg/mL and 37.9 pg/mL
IL-8 Concentration, Average [1, 6]: 51.9 pg/mL
IL-8 Concentration, replicate ([1]; 12X dilution of stock simple solution (Table 6) with P.g. LPS (1 μg/ml), listed as ZnCitrate): 55.6 pg/mL and 48.1 pg/mL
IL-8 Concentration, Average [1, 7]: 86.6 pg/mL
IL-8 Concentration, replicate ([1]; 24X dilution of stock simple solution (Table 6) with P.g. LPS (1 μg/ml), listed as ZnCitrate): 88.5 pg/mL and 84.8 pg/mL

From patent publication US20210318306A1, “Compositions for and Methods of Neutralizing Lipopolysaccharide Toxicity and Methods of Identifying the Same” (priority 2020, published 2021)
